From US10561639B2, “Composition comprising a TNFR agonist and at least one thioredoxin inhibitor for use in the treatment of carcinoma” (UNIVERSITY OF HUDDERSFIELD, priority 2013, dated 2020)

Experiments:
[1] = test system: Bladder carcinoma cells (EJ); assay: Cytotox-Glo apoptosis assay in bladder carcinoma cells (EJ); assay type: cell-based; settings: 48 hours, G28-5 10 ug/mL, PX-12 at minimally cytotoxic concentration, FIG. 1
Protocol: Referring firstly to FIG. 1 where comparative results are shown from Bladder carcinoma cells (EJ) treated with soluble CD40 agonist (agonistic antibody G28-5), the indicated concentration of Trx inhibitor (PX-12), or their combination and results compared to untreated (Control) cells. Apoptosis was assessed 48 hours later using the Cytotox-Glo assay (Promega). Raw data (relative luminescence units) are shown and results are representative of three independent experiments in which six technical replicates were carried out for each condition.
Apoptosis was assessed 48 hours later using the Cytotox-Glo assay (Promega). Results are expressed as relative luciferase in comparison to negative controls and are representative of four independent experiments in which six technical replicates were carried out for each condition.
Carcinoma cell lines EJ and HCT116 (obtained from the European Collection of Cell Cultures, ECACC) were maintained in a 50:50 (v/v) mixture of Dulbecco's Modified Eagle Medium (DMEM, Sigma) and Roswell Park Memorial Institute 1640 (RPMI, Sigma) (DR), supplemented with 5% Fetal calf serum (FCS, Biosera) and 1% (2 mM) L-Glutamine (Sigma). Cells were incubated at 37° C. in a humidified atmosphere of 5% CO2 in air. […] Cells were removed with a 10 mL suspension of DR 5% and counted in single cell suspension using an “improved Neubauer” haemocytometer (VWR). […]

[2] = test system: colorectal carcinoma cells (HCT116); assay: Sensolyte caspase activity assay in colorectal carcinoma cells (HCT116); assay type: cell-based; settings: 24 hours, PX-12 3 μM, G28-5 10 ug/mL, FIG. 3
Protocol: Apoptosis was assessed on the basis of caspase activity detection after 24 hours of treatment using the Sensolyte (Anaspec) assay (Cambridge Biosciences). Results are expressed as relative fluorescence (relative caspase activity) in comparison to negative controls and are representative of two independent experiments in which six technical replicates were carried out for each condition.
Carcinoma cell lines EJ and HCT116 (obtained from the European Collection of Cell Cultures, ECACC) were maintained in a 50:50 (v/v) mixture of Dulbecco's Modified Eagle Medium (DMEM, Sigma) and Roswell Park Memorial Institute 1640 (RPMI, Sigma) (DR), supplemented with 5% Fetal calf serum (FCS, Biosera) and 1% (2 mM) L-Glutamine (Sigma). […] Cells were removed with a 10 mL suspension of DR 5% and counted in single cell suspension using an “improved Neubauer” haemocytometer (VWR).
EJ and HT116 cells were seeded into white 96-well plates (at […] and 6×10^3 cells per well, respectively) and left incubated overnight. […] Cells were then incubated for 48 hours before assessing cell death using the CytoTox-Glo™ cell death detection assay (according to the manufacturer's instructions) on a FLUOstar™ OPTIMA (BMG Labtech) plate reader. Alternatively, after 24 or 48 hours caspase activity was determined using the SensoLyte® Homogenous AFC Caspase-3/7 Assay Kit (Anaspec). […]

[3] = test system: colorectal carcinoma SW480 cells; assay: Cytotox-Glo % cell death in colorectal carcinoma SW480 cells; assay type: cell-based; settings: 12 hours, BS-1 5 microg/mL, PX-12 4 microM, FIG. 8
Protocol: Apoptosis was assessed 12 hours later using the Cytotox-Glo assay (Promega). Results were obtained as relative luciferase activity in comparison to negative controls and subsequently percentage (%) cell death values were deduced for each condition according to the manufacturer's instructions. Results are representative of two independent experiments in which six technical replicates were carried out for each condition.

[4] = PX-12 alone; cited from earlier work
[5] = test system: ASK-1 protein knock-out EJ cell derivatives ('S18'); assay: Cytotox-Glo apoptosis assay in ASK-1 knock-out EJ derivatives treated with mCD40L; assay type: cell-based; settings: S18 cells versus EJ cells, 48 hours, FIG. 5
Protocol: (§1) The cells were treated with mCD40L and apoptosis was assessed 48 hours later using the Cytotox-Glo assay (Promega) and by measuring levels of phospho-JNK and Bax using immune-blotting. The images from the blotting can be seen in FIGS. 6a and 6b.

[6] = test system: phospho-JNK and Bax in ASK-1 knock-out EJ cell derivatives ('S18'); assay: Immunoblotting of phospho-JNK and Bax after mCD40L; assay type: cell-based; settings: cells with ASK-1 knockdown (S18), FIGS. 6a and 6b
Protocol: as §1

CCC(C)SSc1ncc[nH]1 (stereo not drawn) [PX-12, 2-[(1-Methylpropyl)dithio]-1H-imidazole]
cytotoxicity / apoptosis (Cytotox-Glo, relative luminescence units) [1]: little | cytotoxicity / apoptosis by caspase activation (relative caspase activity) [2]: some cytotoxicity | pro-apoptotic activity / cytotoxicity (% Cell Death) [3]: some but not extensive cytotoxicity | doses required for conventional PX-12 treatment to obtain cytotoxicity [4]: 10 to 25 µg/mL

B1: mCD40L: membrane CD40 ligand delivered by co-culture with growth-arrested third-party cells expressing mCD40L (protein, UniProt P29965 1-261, looked up)
chain: MIETYNQTSPRSAATGLPISMKIFMYLLTVFLITQMIGSALFAVYLHRRLDKIEDERNLHEDFVFMKTIQRCNTGERSLSLLNCEEIKSQFEGFVKDIMLNKEETKKENSFEMQKGDQNPQIAAHVISEASSKTTSVLQWAEKGYYTMSNNLVTLENGKQLTVKRQGLYYIYAQVTFCSNREASSQAPFIASLCLKSPGRFERILLRAANTHSSAKPCGQQSIHLGGVFELQPGASVFVNVTDPSQVSHGTGFTSFGLLKL
modifications: full-length expressed on growth-arrested feeder cells
apoptosis after mCD40L in ASK-1 knockdown cells (Cytotox Glo) [5]: inhibition of apoptosis | p-JNK and Bax induction [6]: lack of p-JNK and Bax induction
